The results in this text go back to patent publication US20230329236A1, “HERBICIDAL PYRIMIDINE DERIVATIVES” (MoA Technology Limited, priority 2020, published 2023).

Details in all cases: 336 h, Table 3, post-emergence, 14±1 days post application
For assay [1], the system named is Lolium multiflorum (LOLMU). The assay is described as follows: Post-emergence glasshouse test, visual injury, LOLMU. In kind it is in vivo. The procedure: (§1) Seeds of a variety of test species are grown in a sandy loam soil mixture, Lolium multiflorum (LOLMU), Amaranthus retroflexus (AMARE), Echinochloa crus-gaffi (ECHCG), Veronica persica (VERPE), Glycine max (GLXMA), Oryza sativa (ORYSA), Zea mays (ZEAMX), spring wheat (TRZAS), Ipomoea hederacea (IPOHE), Ipomoea purpurea (PHBPU), Stellaria media (STEME), Solanum nigrum (SOLNI), Digitaria sanguinalis (DIGSA), Setaria italica (SETIT), Alopecurus myosuroides (ALOMY) and Avena fatua (AVEFA).
(§2) After sowing, at growth stage BBCH 12-14 (post-emergence), the plants are sprayed with an aqueous spray solution derived from the formulation of the technical active ingredient in acetone/water (50:50) solution containing 0.5% Tween 20 (polyoxyethlyene sorbitan monolaureate, CAS RN 9005-64-5). The test compounds are applied at the required concentration of active ingredient in g/ha. The test plants are then grown in a glasshouse under controlled environmental conditions and watered regularly as required. After 14±1 days post application (for post-emergence test), the test is evaluated by assessing the percentage damage caused to the plants in comparison with the untreated plots. The biological activities for post-emergence testing are shown below (Table 3 and Table 4) as a % visual injury.

Assay [2] has as its system Echinochloa crus-gaffi (ECHCG). The assay is described as follows: Post-emergence glasshouse test, visual injury, ECHCG. Format: in vivo, Echinochloa crus-galli. The method, then:
as §1, §2

A further assay relates to Veronica persica (VERPE). The experiment in a line: Post-emergence glasshouse test, visual injury, VERPE. In kind it is in vivo. The method, then:
as §1, §2

Assay [3] deals with Amaranthus retroflexus (AMARE). The assay is described as follows: Post-emergence glasshouse test, visual injury, AMARE. Format: in vivo. The method, then:
as §1, §2

A word on the pest or weed control: it is how far the test organism was held down. Low readings indicate a weak effect, high ones a strong effect. With `Cc1cc(-c2cnc(NC3CC3)nc2-c2ccc(C)o2)on1` [Compound 44], the pest or weed control at 500 g/ha in assay [1] is 30%; in assay [2], 20%; with Veronica persica (VERPE), 20%; in assay [3], 70%.

`Cc1cc(-c2cnc(NC3CCC3)nc2C(C)C)on1` [Compound 14]: the pest or weed control at 500 g/ha in assay [1] came out at 50%; in assay [2], 100%; in the assay with Veronica persica (VERPE) it was 100%; in assay [3] it was 100%.

Consider `Cc1cc(-c2cnc(NCC3COCCO3)nc2C2CC2)on1` (stereo not drawn) [Compound 74], for which the pest or weed control at 500 g/ha in assay [1] came to 70%; in assay [2], 80%; in the assay on Veronica persica (VERPE), 90%; in assay [3] it was 100%.

Consider `Cc1cc(-c2cnc(NCc3ccccc3Cl)nc2C(C)C)on1` [Compound 101], for which the pest or weed control at 62 g/ha in assay [1] amounted to 0%; in assay [2] it was 70%; with Veronica persica (VERPE), 40%; in assay [3], 50%.

Consider `Cc1cc(-c2cnc(N(C)C)nc2-c2ccc(C)o2)on1` [Compound 43], for which the pest or weed control at 500 g/ha in assay [1] turned out to be 40%; in assay [2], 60%; in the assay on Veronica persica (VERPE) it was 0%; in assay [3], 50%.

As to `Cc1cc(-c2cnc(N3CCCCCC3)nc2C(C)C)on1` [Compound 49], the pest or weed control at 500 g/ha in assay [1] came to 0%; in assay [2], 60%; with Veronica persica (VERPE) it was 30%; in assay [3], 50%.

For `Cc1cc(-c2cnc(NCc3ccc(F)cc3)nc2C(C)C)on1` [Compound 93], the pest or weed control at 125 g/ha in assay [1] amounted to 60%; in assay [2], 80%; with Veronica persica (VERPE), 100%; in assay [3], 100%.

`Cc1cc(-c2cnc(N)nc2C(F)(F)F)on1` [Compound 122]: the pest or weed control at 125 g/ha in assay [1] stood at 0%; in assay [2] it was 0%; in the assay on Veronica persica (VERPE), 0%; in assay [3] it was 20%.

In the case of `Cc1cc(-c2cnc(NCCn3nccc3C)nc2C(C)C)on1` [Compound 41], the pest or weed control at 500 g/ha in assay [1] came to 30%; in assay [2], 60%; in the assay with Veronica persica (VERPE), 50%; in assay [3], 95%.

On to `Cc1cc(-c2cnc(N3CCC(C(N)=O)CC3)nc2C(C)(C)C)on1` [Compound 26], for which the pest or weed control at 500 g/ha in assay [1] came to 0%; in assay [2] it was 30%; with Veronica persica (VERPE), 60%; in assay [3], 0%.

As for `CC(=O)N1CCN(c2ncc(-c3cc(C)no3)c(-c3ccncc3)n2)CC1` [Compound 59], the pest or weed control at 500 g/ha in assay [1] was 50%; in assay [2] it was 0%; in the assay with Veronica persica (VERPE) it was 90%; in assay [3] it was 0%.

On to `Cc1cc(-c2cnc(NCc3ccccc3F)nc2C2CC2)on1` [Compound 81], for which the pest or weed control at 500 g/ha in assay [1] worked out at 30%; in assay [2], 80%; with Veronica persica (VERPE), 80%; in assay [3], 98%.

For the compound `C=COCCCNc1ncc(-c2cc(C)no2)c(C(C)(C)C)n1` [Compound 33], the pest or weed control at 500 g/ha in assay [1] came to 0%; in assay [2], 70%; in the assay with Veronica persica (VERPE), 0%; in assay [3] it was 80%.

On to `Cc1cc(-c2cnc(NC3CCCC3)nc2C(F)(F)F)on1` [Compound 91], for which the pest or weed control at 125 g/ha in assay [1] amounted to 80%; in assay [2], 95%; in the assay with Veronica persica (VERPE), 99%; in assay [3], 90%.

In the case of `Cc1cc(-c2cnc(NC(C)C)nc2C(C)C)on1` [Compound 83], the pest or weed control at 125 g/ha was 40% in assay [1], 70% in assay [2], 70% in the assay with Veronica persica (VERPE) and 95% in assay [3]. Besides, the pest or weed control at 250 g/ha in assay [1] was 50%; in assay [2] it was 100%; with Veronica persica (VERPE) it was 100%; in assay [3], 98%.

As for `Cc1cc(-c2cnc(NCc3ccc(C#N)cc3)nc2C(C)C)on1` [Compound 118], the pest or weed control at 125 g/ha in assay [1] amounted to 0%; in assay [2], 20%; in the assay on Veronica persica (VERPE), 95%; in assay [3], 80%.

On to `Cc1cc(-c2cnc(NCc3ccc(F)cc3)nc2C(F)F)on1` [Compound 120], for which the pest or weed control at 125 g/ha in assay [1] is 0%; in assay [2], 20%; in the assay with Veronica persica (VERPE) it was 40%; in assay [3] it was 30%.

For `Cc1cc(-c2cnc(NCc3ccccc3C)nc2C(C)C)on1` [Compound 98], the pest or weed control at 62 g/ha in assay [1] amounted to 0%; in assay [2], 70%; in the assay on Veronica persica (VERPE) it was 80%; in assay [3] it was 60%.

As for `Cc1cc(-c2cnc(N(C)C)nc2C(C)C)on1` [Compound 82], the pest or weed control at 250 g/ha in assay [1] came to 30%; in assay [2] it was 70%; in the assay with Veronica persica (VERPE) it was 20%; in assay [3] it was 0%.

As for `Cc1cc(-c2cnc(NCc3ccc(F)cc3)nc2C)on1` [Compound 128], the pest or weed control at 125 g/ha in assay [1] worked out at 30%; in assay [2], 30%; in the assay with Veronica persica (VERPE), 95%; in assay [3], 95%.

On to `Cc1cc(-c2cnc(N3CCC(O)CC3)nc2C(C)C)on1` [Compound 76], for which the pest or weed control at 500 g/ha in assay [1] came out at 0%; in assay [2], 30%; in the assay on Veronica persica (VERPE), 0%; in assay [3] it was 80%.

With `COCCCNc1ncc(-c2cc(C)no2)c(C(C)C)n1` [Compound 32], the pest or weed control at 500 g/ha is 0% in assay [1], 100% in assay [2], 90% in the assay with Veronica persica (VERPE) and 90% in assay [3].

Turning to `Cc1cc(-c2cnc(NCc3cccc(C#N)c3)nc2C(C)C)on1` [Compound 97], the pest or weed control at 62 g/ha was 20% in assay [1], 70% in assay [2], 70% with Veronica persica (VERPE) and 50% in assay [3].

With `CCN(CC)c1ncc(-c2cc(C)no2)c(C(C)C)n1` [Compound 10], the pest or weed control at 250 g/ha in assay [1] turned out to be 0%; in assay [2], 30%; in the assay on Veronica persica (VERPE), 0%; in assay [3], 0%.

As for `Cc1cc(-c2cnc(NCc3ccc(Cl)cc3)nc2C(C)C)on1` [Compound 102], the pest or weed control at 62 g/ha worked out at 20% in assay [1], 80% in assay [2], 80% in the assay on Veronica persica (VERPE) and 98% in assay [3]. Further, the pest or weed control at 125 g/ha came out at 40% in assay [1], 80% in assay [2], 100% with Veronica persica (VERPE) and 100% in assay [3].

For the compound `Cc1cc(-c2cnc(N3CCCC(O)C3)nc2C2CC2)on1` (stereo not drawn) [Compound 57], the pest or weed control at 500 g/ha was 0% in assay [1], 50% in assay [2], 0% in the assay on Veronica persica (VERPE) and 70% in assay [3].

For the compound `Cc1cc(-c2cnc(NCCN3CCCC3=O)nc2C2CC2)on1` [Compound 30], the pest or weed control at 500 g/ha was 0% in assay [1], 70% in assay [2], 0% with Veronica persica (VERPE) and 60% in assay [3].

Consider `Cc1cc(-c2cnc(NCc3ccc4c(c3)OCO4)nc2C(C)(C)C)on1` [Compound 54], for which the pest or weed control at 500 g/ha in assay [1] is 5%; in assay [2], 40%; with Veronica persica (VERPE) it was 99%; in assay [3] it was 40%.

For the compound `Cc1cc(-c2cnc(NCc3ccccn3)nc2C(C)C)on1` [Compound 39], the pest or weed control at 500 g/ha in assay [1] was 0%; in assay [2], 20%; in the assay on Veronica persica (VERPE), 80%; in assay [3], 70%.

In the case of `Cc1cc(-c2cnc(NCC3CCCO3)nc2-c2ccc(C)o2)on1` (stereo not drawn) [Compound 86], the pest or weed control at 1000 g/ha amounted to 0% in assay [1] (1000 g/ha), 0% in assay [2] (1000 g/ha), 70% in the assay on Veronica persica (VERPE) (1000 g/ha) and 0% in assay [3] (1000 g/ha).

As to `Cc1cc(-c2cnc(N3Cc4ccccc4C3=N)nc2C(C)C)on1` [Compound 121], the pest or weed control at 125 g/ha in assay [1] turned out to be 0%; in assay [2] it was 20%; in the assay on Veronica persica (VERPE) it was 0%; in assay [3], 30%.
